Reference: PubChem BioAssay AID328 (DTP/NCI, 2004)
Where “and” joins values, the source holds several entries; their conditions need not be identical. Identical values can stand only once. Toxic doses and inconclusive results are not listed. Rule for the calls: active = survival T/C of 150% or more; inactive = T/C below 125% in these data.

System: BDF1 mice, P388 leukemia ip, median survival T/C
Experiment: NCI In Vivo Anticancer Drug Screen. Data for tumor model P388 Leukemia (intraperitoneal) in B6D2F1 (BDF1) mice
Conditions: endpoint: median survival time, higher = longer survival
How it was run: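 Survival ratio, drug arm over vehicle arm, in mice with a transplanted tumour.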

[1] = dose: 100.0 mg/kg/injection, schedule: Q04DX003 (ip), vehicle: Klucel (hydroxypropylcellulose) (HPC)
[2] = dose: 200.0 mg/kg/injection, schedule: Q04DX003 (ip), vehicle: Klucel (hydroxypropylcellulose) (HPC)
[3] = dose: 400.0 mg/kg/injection, schedule: Q04DX003 (ip), vehicle: Klucel (hydroxypropylcellulose) (HPC)
[4] = dose: 50.0 mg/kg/injection, schedule: Q01DX009 (ip), vehicle: saline with Tween-80
[5] = dose: 100.0 mg/kg/injection, schedule: Q01DX009 (ip), vehicle: saline with Tween-80
[6] = dose: 200.0 mg/kg/injection, schedule: Q01DX009 (ip), vehicle: saline with Tween-80
[7] = dose: 100.0 mg/kg/injection, schedule: Q04DX002 (ip), vehicle: saline with Tween-80
[8] = dose: 25.0 mg/kg/injection, schedule: Q04DX003 (ip), vehicle: saline with Tween-80
[9] = dose: 50.0 mg/kg/injection, schedule: Q04DX003 (ip), vehicle: saline with Tween-80
[10] = dose: 100.0 mg/kg/injection, schedule: Q04DX003 (ip), vehicle: saline with Tween-80
[11] = dose: 200.0 mg/kg/injection, schedule: Q04DX003 (ip), vehicle: saline with Tween-80
[12] = dose: 400.0 mg/kg/injection, schedule: Q01DX009 (ip), vehicle: saline with Tween-80
[13] = dose: 400.0 mg/kg/injection, schedule: Q04DX003 (ip), vehicle: saline with Tween-80

Measured: T/C

C[C@]12CC[C@H]3[C@@H](CC[C@H]4N(CCCl)CCC[C@]34C)[C@@H]1CC[C@@H]2O
inactive: dose: 12.5 mg/kg/injection, schedule: Q01DX001 (ip), vehicle: saline 105 % of control | dose: 25.0 mg/kg/injection, schedule: Q01DX001 (ip), vehicle: saline 109 % of control

CN(N=O)c1ccc(N(C)N=O)cc1
inactive: dose: 50.0 mg/kg/injection, schedule: Q01DX009 (ip), vehicle: Klucel (hydroxypropylcellulose) (HPC) 95 % of control | dose: 100.0 mg/kg/injection, schedule: Q01DX009 (ip), vehicle: Klucel (hydroxypropylcellulose) (HPC) 95 % of control | [1] 95 % of control | dose: 200.0 mg/kg/injection, schedule: Q01DX009 (ip), vehicle: Klucel (hydroxypropylcellulose) (HPC) 90 % of control | [2] 105 % of control | [3] 95 % of control

CN(Cc1ccc(Nc2ccccc2)cc1)C1CCCCC1
inactive: dose: 50.0 mg/kg/injection, schedule: Q01DX009 (ip), vehicle: other 113 % of control
active: dose: 100.0 mg/kg/injection, schedule: Q01DX009 (ip), vehicle: other 160 % of control

OCCN1CCN(CC/C=C2/c3ccccc3Sc3ccc(C(F)(F)F)cc32)CC1
inactive: dose: 5.0 mg/kg/injection, schedule: Q01DX009 (ip), vehicle: saline 101 % of control | dose: 10.0 mg/kg/injection, schedule: Q01DX009 (ip), vehicle: saline 101 % of control | dose: 80.0 mg/kg/injection, schedule: Q04DX003 (ip), vehicle: saline 97 % of control

CC1C=CC(C)C(C(=O)c2ccccc2)C1C(=O)c1ccccc1 (configuration not stated)
inactive: [1] 104 % of control | [2] 100 % of control | [3] 100 % of control

NC(=O)Nc1cccc2ccccc12
inactive: [1] 88 % of control | dose: 200.0 mg/kg/injection, schedule: Q01DX009 (ip), vehicle: gum acacia 92 % of control | [2] 92 % of control | dose: 400.0 mg/kg/injection, schedule: Q01DX009 (ip), vehicle: gum acacia 96 % of control

COB(OC)OC
inactive: [1] 91 % of control | [2] 104 % of control | [3] 91 % of control

S=c1[nH]nc(Nc2ccccc2Cl)s1
inactive: [4] 100 % of control | [5] 90 % of control | [6] 100 % of control

COC(=O)C(C(=O)OC)=C1CS(=O)(=O)C1
inactive: [7] 94 % of control | dose: 200.0 mg/kg/injection, schedule: Q04DX002 (ip), vehicle: saline with Tween-80 101 % of control | dose: 400.0 mg/kg/injection, schedule: Q04DX002 (ip), vehicle: saline with Tween-80 102 % of control

O=C(/C=C/c1ccc(Cl)c(Cl)c1)c1ccc(Cl)cc1
inactive: dose: 12.5 mg/kg/injection, schedule: Q04DX003 (ip), vehicle: saline with Tween-80 100 % of control | [8] 100 % of control | [9] 90 % of control

O=C(O)c1csc(-c2csc(CCNC(=O)C(F)(F)F)n2)n1
inactive: [4] 94 % of control | [5] 93 % of control | [6] 103 % of control

O=C(CCl)N1c2ccccc2Oc2cc3ccccc3cc21
inactive: [5] 104 % of control | [10] 104 % of control | [6] 90 % of control | [11] 100 % of control | [12] 104 % of control | [13] 113 % of control

COc1cc([C@@H]2c3cc4c(c(O)c3C[C@H]3COC(=O)[C@@H]32)OCO4)cc(OC)c1O
inactive: dose: 0.12 mg/kg/injection, schedule: Q01DX010 (ip), vehicle: carboxymethylcellulose (CMC) 105 % of control | dose: 0.25 mg/kg/injection, schedule: Q01DX010 (ip), vehicle: carboxymethylcellulose (CMC) 100 % of control | dose: 0.5 mg/kg/injection, schedule: Q01DX001 (ip), vehicle: other 121 % of control | dose: 0.5 mg/kg/injection, schedule: Q01DX010 (ip), vehicle: other 118 % of control | dose: 1.0 mg/kg/injection, schedule: Q01DX010 (ip), vehicle: carboxymethylcellulose (CMC) 100 % of control and 123 % of control | dose: 30.0 micrograms/kg/injection, schedule: Q01DX010 (ip), vehicle: other 110 % of control | dose: 60.0 micrograms/kg/injection, schedule: Q01DX010 (ip), vehicle: other 110 % of control

Nc1[nH]nc2nccnc12
inactive: [5] 108 % of control | [10] 100 % of control | [6] 100 % of control | [11] 104 % of control | [12] 100 % of control | [13] 109 % of control

CSc1ncc(C)c[n+]1-c1ccccc1
inactive: dose: 50.0 mg/kg/injection, schedule: Q04DX002 (ip), vehicle: saline with Tween-80 106 % of control | [7] 107 % of control

Cc1ccc(C(=O)NCCCOc2ccc(N)cc2Cl)cc1S(=O)(=O)F
inactive: dose: 25.0 mg/kg/injection, schedule: Q01DX009 (ip), vehicle: saline with Tween-80 102 % of control | [4] 111 % of control | [9] 100 % of control | [5] 93 % of control | [10] 92 % of control | [6] 107 % of control | [11] 92 % of control | [13] 90 % of control

CSc1ncnc2c1ncn2CCCl
inactive: [4] 91 % of control | [5] 87 % of control | [10] 95 % of control | [6] 91 % of control | [11] 100 % of control

CCOC(=O)C(C(C)=O)C(c1ccc([N+](=O)[O-])cc1)C(C(C)=O)C(=O)OCC (configuration not stated)
inactive: dose: 0.78 mg/kg/injection, schedule: Q04DX003 (ip), vehicle: saline 117 % of control | dose: 1.56 mg/kg/injection, schedule: Q04DX003 (ip), vehicle: saline 114 % of control | dose: 3.12 mg/kg/injection, schedule: Q01DX009 (ip), vehicle: saline 108 % of control | dose: 3.12 mg/kg/injection, schedule: Q04DX003 (ip), vehicle: saline 104 % of control | dose: 6.25 mg/kg/injection, schedule: Q01DX009 (ip), vehicle: saline 106 % of control | dose: 6.25 mg/kg/injection, schedule: Q04DX003 (ip), vehicle: saline 99 % of control | dose: 12.5 mg/kg/injection, schedule: Q01DX009 (ip), vehicle: saline 100 % of control | dose: 12.5 mg/kg/injection, schedule: Q04DX003 (ip), vehicle: saline 111 % of control | dose: 25.0 mg/kg/injection, schedule: Q01DX009 (ip), vehicle: saline 92 % of control | dose: 25.0 mg/kg/injection, schedule: Q04DX003 (ip), vehicle: saline 99 % of control | dose: 50.0 mg/kg/injection, schedule: Q01DX009 (ip), vehicle: saline 89 % of control | dose: 100.0 mg/kg/injection, schedule: Q01DX009 (ip), vehicle: saline 93 % of control

CN(C)c1ccc(/C=C/c2ccc3ccccc3n2)cc1
inactive: [8] 86 % of control | [9] 86 % of control | [10] 86 % of control

COc1cc(NS(C)(=O)=O)ccc1Nc1c2ccc([N+](=O)[O-])cc2nc2c(C)cccc12
active: dose: 0.86 mg/kg/injection, schedule: Q04DX003 (ip), vehicle: saline with Tween-80 200 % of control | dose: 1.3 mg/kg/injection, schedule: Q04DX003 (ip), vehicle: saline with Tween-80 165 % of control | dose: 2.0 mg/kg/injection, schedule: Q04DX003 (ip), vehicle: saline with Tween-80 184 % of control | dose: 3.0 mg/kg/injection, schedule: Q04DX003 (ip), vehicle: saline with Tween-80 230 % of control and 204 % of control | dose: 5.0 mg/kg/injection, schedule: Q04DX003 (ip), vehicle: saline with Tween-80 241 % of control | dose: 8.0 mg/kg/injection, schedule: Q04DX003 (ip), vehicle: saline with Tween-80 230 % of control and 241 % of control | dose: 12.0 mg/kg/injection, schedule: Q04DX003 (ip), vehicle: saline with Tween-80 230 % of control
inactive: dose: 0.1 mg/kg/injection, schedule: Q04DX003 (ip), vehicle: saline with Tween-80 112 % of control | dose: 0.2 mg/kg/injection, schedule: Q04DX003 (ip), vehicle: saline with Tween-80 120 % of control | dose: 18.0 mg/kg/injection, schedule: Q04DX003 (ip), vehicle: saline with Tween-80 123 % of control

Cc1ccc(Nc2nnc(N=Nc3ccccc3)s2)cc1C
inactive: dose: 100.0 mg/kg/injection, schedule: Q01DX001 (ip), vehicle: Klucel (hydroxypropylcellulose) (HPC) 100 % of control | dose: 200.0 mg/kg/injection, schedule: Q01DX001 (ip), vehicle: Klucel (hydroxypropylcellulose) (HPC) 90 % of control | dose: 400.0 mg/kg/injection, schedule: Q01DX001 (ip), vehicle: Klucel (hydroxypropylcellulose) (HPC) 100 % of control
